From patent publication US11452762B2, “Method of treating rhinitis with C-type natriuretic peptides” (IGISU Co., Ltd., priority 2009, dated 2022)
“Also recorded” adds a separate entry of the source.

What was measured:
[1] = system: patients with rhinitis, allergic rhinitis in particular; experiment: Administration tests of CNP, BNP or ANP nasal solution preparations in rhinitis patients (case studies); type: in vivo, human; conditions: for Symptom improvement (severity level before → after application): 50 μg/ml nasal solution, one spray (130 μl, 6.5 μg) in each nostril once or twice a day, each value one patient (Case); for Effect on nasal itching / tickling feeling (in words): 50 μg/ml twice a day; for Time after application until slight improvement in nasal itching: initial application; for Overall effect on rhinitis symptoms (in words): patients with rhinitis, BNP versus ANP
Method: Diagnosis, evaluation of symptoms, and examination of the CNP nasal drop preparations, BNP nasal drop preparations and ANP nasal drop preparation were performed as follows. The subjects are patients in whom conventional external medicines such as steroids are not sufficiently effective, or patients in whom the use of steroids must be avoided due to local side effects such as nasal irritation and dryness. Diagnosis and treatment of these subjects were performed by the present applicant as a medical doctor. Severity evaluation of symptoms of allergic rhinitis was performed, in principle, in accordance with “Guidelines for medical care of nasal allergies, 2009 edition” (edited by the committee for creation of guidelines for medical care of nasal allergies), by classifying into 5 stages as shown below. Here, “mixed type” refers to the cases wherein both of the sneezing attack or rhinorrhea and the nasal occlusion were presented with the same severity. […] In the above table, evaluation scores for sneezing fit, rhinorrhea and nasal occlusion are as described in the table below. […] Administration tests of the nasal solution preparations of the present invention were performed by, in principle, spraying the CNP nasal solution, BNP nasal solution or ANP nasal solution used to fill a nasal spraying device twice a day at awakening time and before bedtime, with one spray in each nostril at each time. […] Prior to the application of CNP preparations, BNP preparations or ANP preparation, the subjects' history was obtained, scratch tests for allergens were performed and diagnosis was made.

pollen allergy = conditions: after 2 weeks of application, spraying once a day; cited from earlier work
[2] = 50 μg/ml, initial or continued application, listed as ANP nasal solution

CC[C@H](C)[C@@H]1NC(=O)[C@H](CCCNC(=N)N)NC(=O)[C@H](CC(=O)O)NC(=O)[C@H](CCSC)NC(=O)[C@H](CCCCN)NC(=O)[C@H](CCCNC(=N)N)NC(=O)CNC(=O)[C@H](Cc2ccccc2)NC(=O)[C@@H](NC(=O)CNC(=O)[C@H](CO)NC(=O)CNC(=O)[C@H](CCC(N)=O)NC(=O)[C@@H](NC(=O)[C@H](CCSC)NC(=O)[C@H](CCCCN)NC(=O)[C@@H]2CCCN2C(=O)[C@@H](N)CO)C(C)C)CSSC[C@@H](C(=O)N[C@@H](CCCCN)C(=O)N[C@H](C(=O)N[C@@H](CC(C)C)C(=O)N[C@@H](CCCN=C(N)N)C(=O)N[C@@H](CCCN=C(N)N)C(=O)N[C@@H](Cc2cnc[nH]2)C(=O)O)C(C)C)NC(=O)CNC(=O)[C@H](CC(C)C)NC(=O)CNC(=O)[C@H](CO)NC(=O)[C@H](CO)NC(=O)[C@H](CO)NC(=O)[C@H](CO)NC1=O [BNP nasal solution preparation, human BNP-32]
Local irritation symptoms / side effects ([1]; 50 μg/ml nasal spray): later. No irritation | Local irritation symptoms / side effects ([1]; 50 μg/ml nasal spray, listed as BNP nasal solution): local irritation symptoms did not occur; also recorded: no irritation symptoms were observed | Local irritation symptoms / side effects ([1]; 100 μg/ml nasal spray): it does not exhibit such side effects | Local irritation symptoms / side effects ([1]; 200 μg/ml nasal spray, listed as BNP nasal solution): no local irritation symptoms or feelings of discomfort

CC[C@H](C)[C@@H]1NC(=O)[C@H](CCCNC(=N)N)NC(=O)[C@H](CC(=O)O)NC(=O)[C@H](CC(C)C)NC(=O)[C@H](CCCCN)NC(=O)[C@H](CC(C)C)NC(=O)CNC(=O)[C@H](Cc2ccccc2)NC(=O)[C@@H](NC(=O)CNC(=O)[C@H](CCCCN)NC(=O)[C@H](CO)NC(=O)[C@H](CC(C)C)NC(=O)CN)CSSC[C@@H](C(=O)O)NC(=O)CNC(=O)[C@H](CC(C)C)NC(=O)CNC(=O)[C@H](CO)NC(=O)[C@H](CCSC)NC(=O)[C@H](CO)NC(=O)CNC1=O [CNP nasal solution preparation, human CNP-22]
Local irritation symptoms / side effects ([1]; 100 μg/ml nasal spray): side effects such as local irritation symptoms were not observed; also recorded: No local irritation symptoms were observed; also recorded: No local side effects such as irritation, as well as no systemic side effects such as drowsiness were observed; also recorded: without irritation or local side effects; also recorded: without any irritation symptoms | Permeability of the nasal solution (in words) ([1]; 100 μg/ml nasal spray): good and good permeability

C[C@@H]1C[C@H]2[C@@H]3CCC4=CC(=O)C=C[C@]4(C)[C@@]3(Cl)[C@@H](O)C[C@]2(C)[C@@]1(OC(=O)c1ccco1)C(=O)CCl [Mometasone furoate hydrate]
Degree of improvement in nasal occlusion (pollen allergy): 30-40% | Degree of improvement in overall symptoms (pollen allergy): 40-50%

human ANP-28 [ANP nasal solution preparation]
Symptom improvement (severity level before → after application) [1]: Severe → severe | Symptom improvement (severity level before → after application) ([1]; listed as ANP nasal solution): severe before the ANP application to still severe | Effect on nasal itching / tickling feeling (in words) [1]: improved slightly. | Effect on nasal itching / tickling feeling (in words) ([1]; listed as ANP nasal solution): slightly improved | Time after application until slight improvement in nasal itching ([1]; 50 μg/ml): At 1 hr later, a slight | Time after application until slight improvement in nasal itching ([1]; 50 μg/ml, listed as ANP nasal solution): One hour later | Effect on nasal occlusion (in words) ([1]; 50 μg/ml, initial or continued application): sensation was not improved. | Effect on nasal occlusion (in words) [1, 2]: not improved; also recorded: no changes | Effect on rhinorrhea / runny nose (in words) [1, 2]: did not stop; also recorded: no changes; also recorded: not improved; also recorded: No improvement | Number of nose blows under application ([1]; 50 μg/ml, once or twice a day): approximately 20 times a day | Persistence of the effects of an application (in words) ([1]; 50 μg/ml, one application, listed as ANP nasal solution): persistence was short | Time after application until nasal passages opened ([1]; 50 μg/ml, subjective, listed as ANP nasal solution): 20 min | Overall effect on rhinitis symptoms (in words) [1]: no immediate effect was observed | Overall effect on rhinitis symptoms (in words) ([1]; listed as ANP preparations): no improvements or worsening
